{"source": "patent US8734775B2", "about": "“Chemokine derived peptides that bind with chemokine receptor CXCR3 and uses for chronic wound and angiogenesis inhibition treatments” (University of Pittsburgh, priority 2011, dated 2014)", "key": {"[1]": {"target": "T1, CXCR3 on HMEC-1 cells (Homo sapiens, UniProt P49682)", "T1 construct": "HMEC-1 cells express CXCR3; endogenous in cells; host or cells: HMEC-1 (human dermal microvascular endothelial cells)", "T1 sequence (P49682 1-415 isoform P49682-2)": "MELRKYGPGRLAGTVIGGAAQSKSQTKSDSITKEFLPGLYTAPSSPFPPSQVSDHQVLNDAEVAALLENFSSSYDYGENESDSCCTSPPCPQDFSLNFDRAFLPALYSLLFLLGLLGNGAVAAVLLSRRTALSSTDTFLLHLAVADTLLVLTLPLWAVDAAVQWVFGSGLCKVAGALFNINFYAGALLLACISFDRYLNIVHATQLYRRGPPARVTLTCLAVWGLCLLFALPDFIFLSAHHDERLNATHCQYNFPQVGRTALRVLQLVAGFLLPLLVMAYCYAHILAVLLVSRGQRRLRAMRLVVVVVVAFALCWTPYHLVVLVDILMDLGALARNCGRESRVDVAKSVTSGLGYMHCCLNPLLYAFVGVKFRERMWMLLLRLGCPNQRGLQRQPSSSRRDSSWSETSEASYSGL", "test": "Flow cytometry binding of biotin-tagged peptide to HMEC-1 cells", "method": "In the various experiments described below, unless otherwise noted, Biotin labeling was accomplished according to the following procedure. Sulfo-NHS-LC-Biotin (Thermo Scientific 21327) was prepared to result in a 10 mM solution of Biotin. IP-10, IP-10dp or anti-CXCR3 neutralizing antibody were dissolved in PBS according to result in a 20-fold molar excess of biotin reagent to give a 4-6 biotin groups per peptide molecule. The biotin reagent and IP-10 and/or IP-10dp was mixed and incubated on ice for 2 hours. Appropriate controls were used to determine the levels of biotin incorporation. HMEC-1 cells were washed in ice-cold PBS (pH 8) to remove amine-containing media and proteins. Cells were suspended and Sulfo-NHS-LC-Biotin label peptide was added. Mixture was incubated at 4° C. to reduce active internalization of the biotin reagent for 30 minutes. Cells were then washed three times in PBS+100 mM glycine to quench and remove excess biotin. Cells were then incubated with streptavidin conjugated with FITC and analyzed on a BD FACSCalbur flow cytometer.\nTo determine whether IP-10dp binds to CXCR3 on human dermal microvascular endothelial cells, we analyzed the ability of Sulfo-LC-Biotin tagged IP-10 and IP-10dp to bind to H MEC-1 cells using flow cytometery. […] The cells were then incubated with FITC conjugated with streptavidin, and then analyzed on a BD FACSCalbur flow cytometer. […]"}, "[2]": {"tested_on": "HMEC-1 cells", "test": "Tube formation on growth factor reduced Matrigel", "assay_type": "cell-based, human", "method": "To determine whether the IP-10 peptide is able to inhibit tube formation, HMEC-1 cells were grown on growth factor reduced (“GFR”) Matrigel in the presence of VEGF165, IP-10 and/or IP-10dp and the cultures inspected and compared to asses the relative degree of tube formation according to the following procedure. GFR Matrigel 10 μl/well (μ-angiogenesis slide, Ibidi), was incubated for 15 minutes at 37° C. HMEC-1 cells (10,000 cells/well) were re-suspended in 1.0% FBS MDCB131 media containing VEGF (75 ng/ml), IP-10 (300 ng/ml) and IP-10dp (10 μM) and or anti-CXCR3 neutralizing antibody. Treated cells (1×10^4 cells/well) were added to 24-well culture plates coated with growth factor reduced Matrigel and incubated for 24 hours at 37° C. to allow tube formation.\nThe cells cultures were then imaged for tube formation using an Olympus IX70 microscope equipped with a Hammastu camera using MetaView™ software (Universal Imaging Corporation, Downington, Pa.). FIG. 4A is a grid of six labeled black and white photographs taken at this 24 hour point with 4× magnification showing the following representative cell cultures from upper left to lower right: a control culture having no treatment, a culture having treatment only with IP-10, a culture having treatment only with IP-10dp, a culture having treatment only with VEGF, a culture having treatment with combined VEGF and IP-10, and a culture having treatment with combined VEGF and IP-10dp.\nAnalysis of tube formation was preformed using MetaMorph (obtained from Universal Imaging Corporation, Downington, Pa.), and the results reported in the graph of FIG. 4 are shown as a percent of the no-treatment control. The data reported therein are of N=6 and normalized to no treatment (average±SEM), with *P<0.05. As shown by the graph, IP-10 peptide is able to inhibit tube formation. In particular, after incubation for 24 hours, the HMEC-1 cells cultures were able to form tubes in the presence or absence of VEGF165 (compare the photographic images in FIG. 4A)."}, "[3]": {"tested_on": "cAMP production in HMEC-1 cells", "test": "cAMP enzyme immunoassay in endothelial cells", "assay_type": "cell-based, human", "method": "Thus, an experiment was conducted to determine if stimulation of endothelial cells with IP-10dp would induce an increase in cAMP. HMEC-1 cells were plated in 10 mm culture dishes and grown to confluency in complete growth media. The cells were then incubated in serum-reduced media (0.5% dialyzed FBS for HMEC-1 cells) for 24 hours at 37° C. The cells were then washed once with PBS and incubated in serum-free media. The cells were then stimulated with forskolin ([…]), VEGF (100 ng/ml), IP-10 (200 ng/ml), IP-10dp (10 μM) alone or in various combinations. The media was removed and ice cold 80% ethanol was added and the cells incubated on ice for 15 minutes. The extracts were evaluated and quantified for total cAMP production by using a cAMP enzyme immunoassay kit provided by Sigma-Aldrich Corp., of St. Louis, Mo., according to the manufacturer's protocol."}}}
{"sequence": "PESKAIKNLLKAVSKEMSKRSP (IP-10dp; listed as Homo sapiens) [synthetic fragment of IP-10 comprising residues 78-98, the C-terminal α-helical domain]", "values": [{"measurement": "binding to HMEC-1 cells", "setting": "[1]; Sulfo-LC-Biotin tagged peptide, streptavidin-FITC, flow cytometry", "result": "binds to human endothelial cells"}, {"measurement": "fluorescence intensity of binding to CXCR3 on HMEC-1 cells compared with full length IP-10", "setting": "[1]; relative to control, biotin-tagged", "result": "slightly lower fluorescence intensity"}, {"measurement": "tubes formed in the presence of VEGF165", "setting": "[2]; IP-10dp 10 μM plus VEGF 75 ng/ml, 24 hours", "result": "significant reduction"}, {"measurement": "tubes formed compared to control", "setting": "[2]; IP-10dp 10 μM, no VEGF, 24 hours", "result": "significant reduction in tubes formed"}, {"measurement": "inhibition of tube formation compared with full length IP-10", "setting": "[2]; presence and absence of VEGF, IP-10dp 10 μM vs IP-10 300 ng/ml", "result": "slightly better"}, {"measurement": "increase in cAMP production compared to control and VEGF treated cells", "setting": "[3]; IP-10dp 10 μM", "result": "2-3 fold"}, {"measurement": "cAMP production with VEGF plus IP-10dp compared to VEGF alone", "setting": "[3]; VEGF 100 ng/ml plus IP-10dp 10 μM", "result": "significant increase in cAMP production"}]}
